# In publication PMC9157191, “The ex vivo pharmacology of HIV-1 antiretrovirals differs between macaques and humans” (iScience, 2022):
# Several values for one entry are separate records, joined by “and”; a condition that tells them apart may be missing. Equal entries are not always repeated.
# Tests used:
# [1] = system: SIVmac32H K65RM184V; assay: microbe, parasite or virus in culture; format: cell-based; details: for p27 AUC3-15: Rhesus macaque cervical explants
# [2] = Drug concentrations in Rhesus macaque ecto-cervical tissue explants (LC-MS/MS); format: in vitro ADME, Rhesus macaque (Macaca mulatta); details: for AUC3h–15d / Cmax: Rh. macaque ecto-cervical explants, 3 h exposure; for Cmax: monkey, ecto-cervical tissue explants
# [3] = system: SIVmac32H; assay: microbe, parasite or virus in culture; format: cell-based; details: for p27 AUC3-15: Rhesus macaque vaginal explants
# [4] = system: SIVmac32H M184V; format: cell-based, SIV
# [5] = system: HIV-1BaL; assay: microbe, parasite or virus in culture; format: cell-based; details: Human colorectal explants
# [6] = system: HIV-1YU.2 K65RM184V; assay: microbe, parasite or virus in culture; format: cell-based; details: Human colorectal explants;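 as to p24 AUC3-15: high arm above the IC50 and low arm below the IC50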
# [7] = Drug concentrations in Rhesus macaque vaginal tissue explants (LC-MS/MS); format: in vitro ADME, Rhesus macaque (Macaca mulatta); details: for AUC3h–15d / Cmax: Rh. macaque vaginal explants, 3 h exposure; for Cmax: monkey, vaginal tissue explants, read-out: Cmax
# [8] = system: SIVmac32H K65RM184V; assay: microbe, parasite or virus in culture; format: cell-based; details: for p27 AUC3-15: Rhesus macaque colorectal explants
# [9] = system: HIV-1BaL; assay: microbe, parasite or virus in culture; format: cell-based; details: Human cervical explants
# [10] = system: HIV-1/SIV/SHIV isolates; format: cell-based
# [11] = system: HIV-1YU.2; assay: microbe, parasite or virus in culture; format: cell-based; details: Human colorectal explants
# [12] = system: RT-SHIV; assay: tissue or blood; format: cell-based; details: for p27 AUC3-15: Rhesus macaque colorectal explants
# [13] = Drug concentrations in human colorectal tissue explants (LC-MS/MS); format: in vitro ADME; details: for AUC3h-15d / Cmax: Human colorectal explants, 3 h exposure; for Cmax: human, colorectal tissue explants, read-out: Cmax
# [14] = system: SIVmac32H K65RM184V; assay: microbe, parasite or virus in culture; format: cell-based; details: for p27 AUC3-15: Rhesus macaque vaginal explants
# [15] = Drug concentrations in Rhesus macaque colorectal tissue explants (LC-MS/MS); format: in vitro ADME, Rhesus macaque (Macaca mulatta); details: for AUC3h–15d / Cmax: Rh. macaque colorectal explants, 3 h exposure; for Cmax: monkey, colorectal tissue explants, read-out: Cmax
# [16] = system: SIVmac32H K65R; format: cell-based, SIV
# [17] = system: HIV-1YU.2 K65R; assay: microbe, parasite or virus in culture; format: cell-based; details: Human colorectal explants
# [18] = system: SIVmac32H; assay: microbe, parasite or virus in culture; format: cell-based; details: for p27 AUC3-15: Rhesus macaque colorectal explants
# [19] = Drug concentrations in human ecto-cervical tissue explants (LC-MS/MS); details: for AUC3h-15d / Cmax: Human ecto-cervical explants, 3 h exposure; for Cmax: human, ecto-cervical tissue explants
# [20] = system: SIVmac32H; assay: microbe, parasite or virus in culture; format: cell-based; details: for p27 AUC3-15: Rhesus macaque cervical explants
# [21] = system: RT-SHIV; assay: tissue or blood; format: cell-based; details: for p27 AUC3-15: Rhesus macaque vaginal explants
# [22] = system: HIV-1YU.2 M184V; assay: microbe, parasite or virus in culture; format: cell-based; details: Human colorectal explants
# [23] = high concentration: TFV 70 µM, MVC […], or TFV 70 µM + MVC […]
# [24] = low concentration: TFV 7 µM, MVC […], or TFV 7 µM + MVC […]
# [25] = Simian immunodeficiency virus, in Macaca mulatta, 360 h, NHP cervical explants, day 15
# [26] = Comb. gel, High [ ]: TFV 70 µM + MVC […]
# [27] = Comb. gel, Low [ ]: TFV 7 µM + MVC […]
# [28] = Single gel, High [ ]: TFV 70 µM or MVC […]
# [29] = Single gel, Low [ ]: TFV 7 µM or MVC […]
# [30] = Simian immunodeficiency virus, in Macaca mulatta, 360 h, NHP vaginal explants, day 15
# [31] = Human immunodeficiency virus 1, 360 h, day 15
# [32] = Simian immunodeficiency virus, in Macaca mulatta, 360 h, NHP colorectal explants, day 15
smiles,measurement,setting,value
"C[C@H](Cn1cnc2c(N)ncnc21)OCP(=O)(O)O [TFV, Tenofovir]",p27 AUC3-15,[1]; [23],1.40 ± 0.30 µgxd/ml
same,p27 AUC3-15,[1]; [24],1.65 ± 0.30 µgxd/ml
same,IC50,[1]; [25],81.3 ± 50.8 µM
same,AUC3h-15d fold increase on combining the two ARVs,"[2]; NHP ecto-cervical explants, combination versus single drug",2.2 fold
same,AUC3h–15d,[2]; [26],18.55 ng·days/mg
same,AUC3h–15d,[2]; [27],14.11 ng·days/mg
same,AUC3h–15d,[2]; [28],9.55 ng·days/mg
same,AUC3h–15d,[2]; [29],4.99 ng·days/mg
same,Cmax,[2]; [26],2460 ng/g
same,Cmax,[2]; [27],1860 ng/g
same,Cmax,[2]; [28],1250 ng/g
same,Cmax,[2]; [29],660 ng/g
same,p27 AUC3-15,[3]; [23],1.27 ± 0.24 µgxd/ml
same,p27 AUC3-15,[3]; [24],1.44 ± 0.28 µgxd/ml
same,IC50,[3]; [30],56.1 ± 62.9 µM
same,IC50,[4],40.2 ± 30.1 µM
same,p24 AUC3-15,[5]; [23],0.41 ± 0.17 µgxd/ml
same,p24 AUC3-15,[5]; [24],2.57 ± 1.81 µgxd/ml
same,IC50,[5]; [31],22.2 ± 1.39 µM
same,p24 AUC3-15,[6]; [23],1.01 ± 0.11 µgxd/ml
same,p24 AUC3-15,[6]; [24],1.88 ± 0.07 µgxd/ml
same,IC50,[6]; [31],36.4 ± 3.83 µM
same,AUC3h–15d,[7]; [26],10.16 ng·days/mg
same,AUC3h–15d,[7]; [27],5.75 ng·days/mg
same,AUC3h–15d,[7]; [28],10.25 ng·days/mg
same,AUC3h–15d,[7]; [29],4.05 ng·days/mg
same,"AUC3h-15d fold increase, high versus low concentration gels",[7]; macaque vaginal explants,2.1 fold
same,Cmax,[7]; [26],1350 ng/g
same,Cmax,[7]; [27],770 ng/g
same,Cmax,[7]; [28],1370 ng/g
same,Cmax,[7]; [29],540 ng/g
same,p27 AUC3-15,[8]; [23],1.38 ± 0.27 µgxd/ml
same,p27 AUC3-15,[8]; [24],1.70 ± 0.32 µgxd/ml
same,IC50,[8]; [32],47.9 ± 24.9 µM
same,p24 AUC3-15,[9]; [23],1.13 ± 0.10 µgxd/ml
same,p24 AUC3-15,[9]; [24],2.55 ± 1.47 µgxd/ml
same,IC50,[9]; [31],41.4 ± 0.57 µM
same,potency against the mutant isolates,[10],reduced
same,median (IQR) fold decreased IC50 values for matched isolates,"[10]; colorectal tissue compared to female genital tract tissue, NHP and human explants",1.8 (1.7–2.1) fold
same,p24 AUC3-15,[11]; [23],1.83 ± 0.18 µgxd/ml
same,p24 AUC3-15,[11]; [24],10.73 ± 5.56 µgxd/ml
same,IC50,[11]; [31],28.9 ± 11.8 µM
same,IC50,"[12]; Macaca mulatta, 360 h, NHP colorectal explants, day 15",30 ± 13.2 µM
same,p27 AUC3-15,[12]; [23],1.45 ± 0.24 µgxd/ml
same,p27 AUC3-15,[12]; [24],4.27 ± 2.75 µgxd/ml
same,AUC3h-15d,[13]; [26],6.37 ng·days/mg
same,AUC3h-15d,[13]; [27],1.99 ng·days/mg
same,AUC3h-15d,[13]; [28],6.62 ng·days/mg
same,AUC3h-15d,[13]; [29],2.47 ng·days/mg
same,"AUC3h-15d fold increase, high versus low concentration gels",[13]; human colorectal tissue,2.9 fold
same,Cmax,[13]; [26],3670 ng/g
same,Cmax,[13]; [27],1170 ng/g
same,Cmax,[13]; [28],2920 ng/g
same,Cmax,[13]; [29],1320 ng/g
same,p27 AUC3-15,[14]; [23],1.37 ± 0.30 µgxd/ml
same,p27 AUC3-15,[14]; [24],1.61 ± 0.29 µgxd/ml
same,IC50,[14]; [30],77.1 ± 31.5 µM
same,exposure (AUC3h-15d) fold change,[15]; NHP colorectal explants versus ecto-cervical,2.5 fold
same,exposure (AUC3h-15d) fold change,[15]; NHP colorectal explants versus vaginal tissues,4.4 fold
same,AUC3h–15d,[15]; [26],66.86 ng·days/mg
same,AUC3h–15d,[15]; [27],13.99 ng·days/mg
same,AUC3h–15d,[15]; [28],30.64 ng·days/mg
same,AUC3h–15d,[15]; [29],4.68 ng·days/mg
same,Cmax,[15]; [26],44200 ng/g
same,Cmax,[15]; [27],9190 ng/g
same,Cmax,[15]; [28],20200 ng/g
same,Cmax,[15]; [29],2980 ng/g
same,IC50,[16],46.6 ± 12.6 µM
same,p27 AUC3-15,[16],1.43 ± 0.31 µgxd/ml and 1.95 ± 0.54 µgxd/ml
same,p24 AUC3-15,[17]; [23],0.41 ± 0.03 µgxd/ml
same,p24 AUC3-15,[17]; [24],0.71 ± 0.06 µgxd/ml
same,IC50,[17]; [31],62.4 ± 15.8 µM
same,p27 AUC3-15,[18]; [23],1.23 ± 0.14 µgxd/ml
same,p27 AUC3-15,[18]; [24],4.84 ± 1.77 µgxd/ml
same,IC50,[18]; [32],25.4 ± 5.35 µM
same,AUC3h-15d,[19]; [26],30.61 ng·days/mg
same,AUC3h-15d,[19]; [27],4.409 ng·days/mg
same,AUC3h-15d,[19]; [28],25.40 ng·days/mg
same,AUC3h-15d,[19]; [29],4.05 ng·days/mg
same,average exposure (AUC3h-15d) fold change,[19]; human ecto-cervical compared to colorectal explants,3.7 fold
same,"AUC3h-15d fold increase, high versus low concentration gels",[19]; human ecto-cervical explants,6.6 fold
same,Cmax fold increase,[19]; human ecto-cervical explants versus macaque tissue,5.6 fold
same,Cmax,[19]; [26],16600 ng/g
same,Cmax,[19]; [27],2380 ng/g
same,Cmax,[19]; [28],13600 ng/g
same,Cmax,[19]; [29],2030 ng/g
same,p27 AUC3-15,[20]; [23],1.25 ± 0.36 µgxd/ml
same,p27 AUC3-15,[20]; [24],1.46 ± 0.52 µgxd/ml
same,IC50,[20]; [25],52.6 ± 41.5 µM
same,IC50,"[21]; Macaca mulatta, 360 h, NHP vaginal explants, day 15",52.1 ± 27.3 µM
same,p27 AUC3-15,[21]; [23],1.28 ± 0.27 µgxd/ml
same,p27 AUC3-15,[21]; [24],1.53 ± 0.29 µgxd/ml
same,p24 AUC3-15,[22]; [23],0.52 ± 0.02 µgxd/ml
same,p24 AUC3-15,[22]; [24],0.82 ± 0.05 µgxd/ml
same,IC50,[22]; [31],37.9 ± 12.5 µM
